From patent US9199946B2, “Pyrimidinone carboxamide inhibitors of endothelial lipase” (BRISTOL-MYERS SQUIBB COMPANY, priority 2012, dated 2015) come the findings set out here.

Where only a bound is given, the exact number is not on record here.

The first assay addresses T1, Endothelial lipase (EL) (Homo sapiens, UniProt Q9Y5X9).
T1 construct: HT-1080 cells, which were transformed by RAGE technology (Athersys) to overexpress endogenous EL; endogenous in cells; conditioned medium used as the enzyme source
T1 sequence (Q9Y5X9 21-500): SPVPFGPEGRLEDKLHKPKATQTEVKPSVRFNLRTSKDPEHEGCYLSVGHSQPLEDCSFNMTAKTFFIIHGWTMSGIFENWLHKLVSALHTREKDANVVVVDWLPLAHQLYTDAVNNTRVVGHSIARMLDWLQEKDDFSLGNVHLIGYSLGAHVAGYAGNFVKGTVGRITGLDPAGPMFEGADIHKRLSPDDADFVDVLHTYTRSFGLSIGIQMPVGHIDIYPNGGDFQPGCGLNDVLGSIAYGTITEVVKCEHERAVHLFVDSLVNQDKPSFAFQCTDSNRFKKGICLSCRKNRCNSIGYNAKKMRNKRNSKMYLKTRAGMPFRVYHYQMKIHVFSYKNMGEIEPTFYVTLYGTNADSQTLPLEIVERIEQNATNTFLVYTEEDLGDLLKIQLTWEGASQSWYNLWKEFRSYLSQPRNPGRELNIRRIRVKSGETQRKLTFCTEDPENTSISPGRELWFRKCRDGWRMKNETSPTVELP
Description: Endothelial lipase (EL) enzymatic assay with fluorescent substrate A10070 in DMPG vesicles. Format: biochemical. The note with it: conditioned media from HT-1080 cells overexpressing endogenous EL; 20 min preincubation at 37° C.; read-out: EL IC50. Summed up: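 The enzyme source was conditioned medium from HT-1080 cells engineered to overexpress endogenous EL. It was preincubated with compound for 20 min at 37 °C in 50 mM HEPES pH 8.0, 50 mM NaCl, 1 mM CaCl2. Reactions started with DMPG vesicles carrying FRET substrate A10070 (mole fraction 0.05). The rate was taken from the linear slope of fluorescence (ex 488/em 530 nm) over 10 min.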
Regarding `O=C(N[C@H]1CC[C@@H](c2ccccc2)CC1)c1[nH]c(=O)n(CC(F)(F)F)c(=O)c1O` [Example 243, 5-hydroxy-2,6-dioxo-N-(cis-4-phenylcyclohexyl)-1-(2,2,2-trifluoroethyl)-1,2,3,6-tetrahydropyrimidine-4-carboxamide], the IC50 is 0.967 µM. As for `Nc1c(C(=O)N[C@@H]2CCc3c2cccc3C(F)(F)F)[nH]c(=O)[nH]c1=O` [Example 14, (R)-5-amino-2,6-dioxo-N-(4-(trifluoromethyl)-2,3-dihydro-1H-inden-1-yl)-1,2,3,6-tetrahydropyrimidine-4-carboxamide], the half-inhibitory concentration (IC50) worked out at 2.78 µM. On the same count and under the same terms, the same measure for `O=C(N[C@H]1CC[C@@H](c2ccccc2)CC1)c1[nH]c(=O)[nH]c(=O)c1NC1CCCC1` [Example 208, 5-(cyclopentylamino)-2,6-dioxo-N-(cis-4-phenylcyclohexyl)-1,2,3,6-tetrahydropyrimidine-4-carboxamide]: 0.659 µM; for `Nc1c(C(=O)N[C@H]2CC[C@@H](c3ccc(-c4ccnn4C4CCCCO4)cc3)C2)[nH]c(=O)[nH]c1=O` (stereo partly drawn) [Example 176, 5-amino-2,6-dioxo-N-((1S,3R)-3-(4-(1-(tetrahydro-2H-pyran-2-yl)-1H-pyrazol-5-yl)phenyl)cyclopentyl)-1,2,3,6-tetrahydropyrimidine-4-carboxamide]: 1.09 µM; for `Nc1c(C(=O)N[C@H]2CC[C@@H](c3ccccc3)CC2)n(-c2cc(F)cc(C(F)(F)F)c2)c(=O)[nH]c1=O` [Example 203, 5-Amino-3-(3-fluoro-5-(trifluoromethyl)phenyl)-2,6-dioxo-N-(cis-4-phenylcyclohexyl)-1,2,3,6-tetrahydropyrimidine-4-carboxamide]: 6.22 µM.

The same assay, now with this note: range observed in the EL assay; read-out: EL IC50 values.
As for `Nc1c(C(=O)NC2CCC(c3ccc(OCc4ccccc4)cc3)C2)[nH]c(=O)[nH]c1=O` (stereo not drawn) [Example 106, 5-amino-N-(3-(4-(benzyloxy)phenyl)cyclopentyl)-2,6-dioxo-1,2,3,6-tetrahydropyrimidine-4-carboxamide], the IC50 is not above 10 µM.

As to `O=C(N[C@H]1CC[C@@H](c2ccccc2)CC1)c1[nH]c(=O)n(CC(F)(F)F)c(=O)c1O` [Example 243, 5-hydroxy-2,6-dioxo-N-(cis-4-phenylcyclohexyl)-1-(2,2,2-trifluoroethyl)-1,2,3,6-tetrahydropyrimidine-4-carboxamide], the IC50 was not above 10 µM. Regarding `Nc1c(C(=O)NC2CCC(n3cc(-c4ccc(Br)cc4)cn3)C2)[nH]c(=O)[nH]c1=O` (stereo not drawn) [Example 140, 5-amino-N-(3-(4-(4-bromophenyl)-1H-pyrazol-1-yl)cyclopentyl)-2,6-dioxo-1,2,3,6-tetrahydropyrimidine-4-carboxamide], the IC50 is not above 10 µM. With `O=C(N[C@@H]1CC[C@@H](C(=O)N[C@H]2CC[C@@H](c3ccccc3)CC2)C1)c1[nH]c(=O)[nH]c(=O)c1O` [Example 297, 5-hydroxy-2,6-dioxo-N-((1R,3R)-3-((1s,4S)-4-phenylcyclohexylcarbamoyl)cyclopentyl)-1,2,3,6-tetrahydropyrimidine-4-carboxamide], the IC50 is not above 10 µM. Same read-out and setting: the same measure for `Nc1c(C(=O)N[C@@H]2CCc3c2cccc3C(F)(F)F)[nH]c(=O)[nH]c1=O` [Example 14, (R)-5-amino-2,6-dioxo-N-(4-(trifluoromethyl)-2,3-dihydro-1H-inden-1-yl)-1,2,3,6-tetrahydropyrimidine-4-carboxamide]: not above 10 µM. With `Nc1c(C(=O)NC2CCC(c3ccccc3)c3ccccc32)[nH]c(=O)[nH]c1=O` (stereo not drawn) [Example 6, 5-amino-2,6-dioxo-N-(4-phenyl-1,2,3,4-tetrahydronaphthalen-1-yl)-1,2,3,6-tetrahydropyrimidine-4-carboxamide], the IC50 is not above 10 µM.

With `O=C(N[C@@H]1CCc2cc(C(F)(F)F)ccc21)c1[nH]c(=O)[nH]c(=O)c1O` [Example 249, (R)-5-hydroxy-2,6-dioxo-N-(5-(trifluoromethyl)-2,3-dihydro-1H-inden-1-yl)-1,2,3,6-tetrahydropyrimidine-4-carboxamide], the IC50 is not above 10 µM. In the case of `COc1cccc2c1CCC[C@H]2NC(=O)c1[nH]c(=O)[nH]c(=O)c1N` [Example 103, (R)-5-amino-N-(5-methoxy-1,2,3,4-tetrahydronaphthalen-1-yl)-2,6-dioxo-1,2,3,6-tetrahydropyrimidine-4-carboxamide], the IC50 was not above 10 µM. As for `Cc1c(-c2ccc([C@H]3CC[C@@H](NC(=O)c4[nH]c(=O)[nH]c(=O)c4N)C3)cc2)cnn1-c1ccccc1` [Example 165, 5-amino-N-((1R,3S)-3-(4-(5-methyl-1-phenyl-1H-pyrazol-4-yl)phenyl)cyclopentyl)-2,6-dioxo-1,2,3,6-tetrahydropyrimidine-4-carboxamide], the IC50 was not above 10 µM. Still for that read-out and setting: in the case of `Nc1c(C(=O)N[C@H]2CC[C@H](c3ccccc3)c3ccccc32)[nH]c(=O)[nH]c1=O` [Example 71, 5-amino-2,6-dioxo-N-((1S,4R)-4-phenyl-1,2,3,4-tetrahydronaphthalen-1-yl)-1,2,3,6-tetrahydropyrimidine-4-carboxamide] it was not above 10 µM; in that of `COc1ccc2c(c1)CC[C@H]2NC(=O)c1[nH]c(=O)[nH]c(=O)c1N` [Example 70, (R)-5-amino-N-(5-methoxy-2,3-dihydro-1H-inden-1-yl)-2,6-dioxo-1,2,3,6-tetrahydropyrimidine-4-carboxamide], not above 10 µM. On the same count and under the same terms, in the case of `COC(=O)[C@@H]1C[C@@H](NC(=O)c2[nH]c(=O)[nH]c(=O)c2N)c2ccccc2[C@H]1c1ccccc1` [Example 23, (1R,2R,4R)-methyl 4-(5-amino-2,6-dioxo-1,2,3,6-tetrahydropyrimidine-4-carboxamido)-1-phenyl-1,2,3,4-tetrahydronaphthalene-2-carboxylate] it was not above 10 µM; in that of `Nc1c(C(=O)N[C@@H]2CC[C@H](c3ccccc3)C2)[nH]c(=O)[nH]c1=O` [Example 75, 5-amino-2,6-dioxo-N-((1R,3S)-3-phenylcyclopentyl)-1,2,3,6-tetrahydropyrimidine-4-carboxamide], not above 10 µM; in that of `Nc1c(C(=O)N[C@H]2CCCc3cc(OCC(F)(F)F)ccc32)[nH]c(=O)[nH]c1=O` [Example 34, (S)-5-amino-2,6-dioxo-N-(6-(2,2,2-trifluoroethoxy)-1,2,3,4-tetrahydronaphthalen-1-yl)-1,2,3,6-tetrahydropyrimidine-4-carboxamide], not above 10 µM. For the compound `Nc1c(C(=O)NC2CCCC(c3ccccc3)C2)[nH]c(=O)[nH]c1=O` (stereo not drawn) [Example 101, 5-amino-2,6-dioxo-N-(3-phenylcyclohexyl)-1,2,3,6-tetrahydropyrimidine-4-carboxamide], the IC50 is not above 10 µM.

Take `O=C(N[C@H]1CC[C@@H](c2ccccc2)CC1)c1[nH]c(=O)[nH]c(=O)c1NC1CCCC1` [Example 208, 5-(cyclopentylamino)-2,6-dioxo-N-(cis-4-phenylcyclohexyl)-1,2,3,6-tetrahydropyrimidine-4-carboxamide]: the 50% inhibitory concentration (IC50) is not above 10 µM. Take `CN(C)c1cccc(-c2ccc([C@@H]3CC[C@H](NC(=O)c4[nH]c(=O)[nH]c(=O)c4N)C3)cc2)c1` [Example 166, 5-amino-N-((1S,3R)-3-(3′-(dimethylamino)biphenyl-4-yl)cyclopentyl)-2,6-dioxo-1,2,3,6-tetrahydropyrimidine-4-carboxamide]: the concentration for half-maximal inhibition (IC50) is not above 10 µM. For the compound `O=C(N[C@H]1CC[C@@H](c2ccccc2)CC1)c1[nH]c(=O)[nH]c(=O)c1NCCc1c[nH]cn1` [Example 213, 5-(2-(1H-imidazol-4-yl)ethylamino)-2,6-dioxo-N-(cis-4-phenylcyclohexyl)-1,2,3,6-tetrahydropyrimidine-4-carboxamide], the IC50 is not above 10 µM.

As to `Nc1c(C(=O)N[C@H]2CC[C@@H](c3ccc(-c4ccnn4C4CCCCO4)cc3)C2)[nH]c(=O)[nH]c1=O` (stereo partly drawn) [Example 176, 5-amino-2,6-dioxo-N-((1S,3R)-3-(4-(1-(tetrahydro-2H-pyran-2-yl)-1H-pyrazol-5-yl)phenyl)cyclopentyl)-1,2,3,6-tetrahydropyrimidine-4-carboxamide], the concentration for half-maximal inhibition (IC50) was not above 10 µM. In the case of `O=C(N[C@H]1CC[C@@H](c2cccc(C(F)(F)F)c2)CC1)c1[nH]c(=O)[nH]c(=O)c1O` [Example 257, 5-hydroxy-2,6-dioxo-N-((1s,4s)-4-(3-(trifluoromethyl)phenyl)cyclohexyl)-1,2,3,6-tetrahydropyrimidine-4-carboxamide], the concentration for half-maximal inhibition (IC50) is not above 10 µM.

`Nc1c(C(=O)N[C@@H]2CCC(c3ccc(Cl)c(Cl)c3)c3ccccc32)[nH]c(=O)[nH]c1=O` (single isomer, unassigned) [Example 37]: the 50% inhibitory concentration (IC50) is not above 10 µM.

As for `Nc1c(C(=O)N[C@@H]2CCCc3ccccc32)[nH]c(=O)[nH]c1=O` [Example 13, (R)-5-amino-2,6-dioxo-N-(1,2,3,4-tetrahydronaphthalen-1-yl)-1,2,3,6-tetrahydropyrimidine-4-carboxamide], the IC50 is not above 10 µM. In the case of `CC(C)(C)OC(=O)N1CCC(NC(=O)c2[nH]c(=O)[nH]c(=O)c2N)c2ccccc21` (stereo not drawn) [Example 16, tert-butyl 4-(5-amino-2,6-dioxo-1,2,3,6-tetrahydropyrimidine-4-carboxamido)-3,4-dihydroquinoline-1(2H)-carboxylate], the IC50 was not above 10 µM. The same measure, in the same setting: in the case of `COc1ccccc1C1CCC(NC(=O)c2[nH]c(=O)[nH]c(=O)c2N)C1` (stereo not drawn) [Example 141, 5-amino-N-(3-(2-methoxyphenyl)cyclopentyl)-2,6-dioxo-1,2,3,6-tetrahydropyrimidine-4-carboxamide] it was not above 10 µM; in that of `Nc1c(C(=O)N[C@H]2CC[C@@H](c3ccccc3)CC2)[nH]c(=O)[nH]c1=O` [Example 3, 5-amino-2,6-dioxo-N-(cis-4-phenylcyclohexyl)-1,2,3,6-tetrahydropyrimidine-4-carboxamide], not above 10 µM; in that of `Nc1c(C(=O)N[C@H]2CCCc3ccccc32)[nH]c(=O)[nH]c1=O` [Example 10, (S)-5-amino-2,6-dioxo-N-(1,2,3,4-tetrahydronaphthalen-1-yl)-1,2,3,6-tetrahydropyrimidine-4-carboxamide], not above 10 µM. Still for that read-out and setting: the same measure for `Nc1c(C(=O)N[C@H]2CC[C@H](C(=O)Nc3ccccc3)C2)[nH]c(=O)[nH]c1=O` [Example 129, 5-amino-2,6-dioxo-N-((1S,3S)-3-(phenylcarbamoyl)cyclopentyl)-1,2,3,6-tetrahydropyrimidine-4-carboxamide]: not above 10 µM; for `Nc1c(C(=O)N[C@H]2CC[C@@H](c3ccccc3)CC2)n(-c2cc(F)cc(C(F)(F)F)c2)c(=O)[nH]c1=O` [Example 203, 5-Amino-3-(3-fluoro-5-(trifluoromethyl)phenyl)-2,6-dioxo-N-(cis-4-phenylcyclohexyl)-1,2,3,6-tetrahydropyrimidine-4-carboxamide]: not above 10 µM.

As usually defined, the IC50 is the concentration needed to halve the response being measured.
